These results are taken from US11773108B2, “Indene derivatives useful in treating pain and inflammation” (TARO PHARMACEUTICALS INC., priority 2018, dated 2023).

Series [1] concerns T cells isolated from mouse spleens. As to the kind of experiment: T cell proliferation (anti-CD3/anti-CD28 dynabeads, CCK-8 assay). It is filed as cell-based. The note with it: 72 hours, read-out: Scoring: IC50, cell proliferation. The procedure: weeks old. Cells were harvested under sterile conditions by forcing each spleen though a cell filter (pore size 100 μm diameter). A homogenous cell suspension was obtained by washing the cells in fresh medium and passing cells through a smaller cell filter (pore size 70 μm).
Untouched T cells were isolated using the Pan T cell isolation kit (Miltenyi Biotech). Briefly, cells were counted and incubated with the required volume of antibody cocktail for 5 minutes at 4° C. before addition of microbeads and incubation for 10 minutes at 4° C. Labeled cells were retained in a magnetic column while unlabeled cells (T cells) passed through the column and were retained for use in the assay.
Cell viability was assessed by Trypan Blue exclusion and found to be >99% prior to transfer to plates. Isolated T cells were seeded out in 96 well plates at a density of 50,000 cells per well and allowed to incubate for 60 minutes in a humidified cell culture (37° C., 5% CO2) incubator prior to compound treatment. The media used for this assay (TexMACS, Miltenyi Biotech) was previously optimized for proliferation of T cells in serum free conditions.
Representative compounds of the invention (i.e., test compounds) were prepared as 30 mM stocks in 100% DMSO. Test compounds were initially diluted in media to yield 3 mM stocks before an additional 1:10 dilution in media was performed to yield working stocks of 300 μM (1% DMSO). Subsequent dilutions were performed in media (supplemented with 1% DMSO). When added to the assay plates (1:10 dilution), these yielded final concentrations in the assay plates of in 0.1% DMSO. The reference compound, Cyclosporin A, was prepared in an identical manner as above.
Unstimulated and Stimulated Control wells received an identical volume of TexMACS media/1% DMSO at this time, resulting in a final concentration of 0.1% DMSO across the plate. […] After removal of 60% of the supernatant for subsequent ELISA, cell proliferation was assessed using the CCK-8 assay. […]
In general terms: Tetrazolium assays rely on reduction of a dye to a coloured formazan, in cell work by metabolically active cells.

Series [2] is described as follows: Metabolism by human liver microsomes. The note with it: human liver microsomes 1 mg/mL protein, 10 μM, in the presence of NADPH, LC-MS/MS. The series is classed as in vitro ADME. The procedure: Representative compounds of the invention (i.e., test compounds) and the positive control, 7-ethoxycoumarin, were prepared as stock solutions at 10 mM in DMSO and eventually diluted to 10 μM in the test plate, with an appropriate amount of acetonitrile and tris HCl buffer. Final DMSO and acetonitrile concentrations were […] and 0.5% respectively. NADPH was prepared in tris HCl buffer to a stock of 10 mM. A frozen aliquot of liver microsomes was retrieved from the freezer (−80° C.) and thawed by placing the tube on wet ice. After thawing, the tubes were gently mixed and the required amount, transferred to tris HCl buffer. Test compounds or positive control were pre-incubated, separately, for 10 minutes, with liver microsomes (1 mg/mL protein), at 37° C., in 100 mM Tris HCl at pH 7.5. After preincubation the reaction was started by adding 1 mM NADPH (pre-equilibrated to 30° C.) and the reaction allowed to proceed for 60 minutes. At 60 minutes, a 50 μL aliquot was removed and quenched with 200 uL of acetonitrile containing a mixture of internal standards (Tolbutamide (500 ng/mL) and Telmistartan (500 ng/mL)) and vortexed then centrifuged at 4000 rpm for 10 minutes (Eppendorf 5810R). The supernatant was transferred to a 96 well plate for LC-MS/MS analysis.
An LC-MS/MS method was devised for the test compounds and the control, using a AB Sciex API 4000 system coupled to a NEXAR™ UHPLC (Shimadzu) system. Analytes were separated on a Phenomenex Kinetex C18 column (50×2.1 mm, 5 μm) using a gradient that was appropriate for each compound, at a flow rate of 1 ml/minute, utilizing a mobile phase of 0.1% formic acid in MILLI-Q™ water (A) and 0.1% formic acid in acetonitrile (B). The MS instrument was operated in positive mode (ESI+)/negative (ESI−). The multiple reaction monitoring (MRM) transition for test and control compounds was used for the LC-MS/MS analysis. MRM transitions for control compound 7-ethoxycoumarinm were Quadropole 1: 191.0, Quadropole 3:163.0, dwell time: 75 msec, using curtain gas settings of 5 V, ion-spray voltage of 5500 V, temperature of 50° C. and gas settings for nebulizer and auxiliary set to 30 and 40 psi, respectively. The interface heater was kept on. Entrance potential and collision cell exit potential were varied to tune for a specific compound.
Using a suitable LC-MS/MS method, the percentage of drug remaining at 60 minutes ([…]) was assessed by comparing the average analyte to internal standard area ratio at 60 minutes to the average analyte to internal standard area ratio at 0 time control, as a percentage, from a 5 to 10 μL sample injection.
According to the above assay, the test compounds listed in Table 7 below were active in the Human liver microsome assay at 10 μM and the % of drug remaining after 60 minutes (PDR60), in the presence of NADPH, was assessed by LC-MS/MS. Average PDR60 for the standard compound, 7-ethoxycoumarin was <=65% in the presence of NADPH. Scoring for the test compounds, in the presence of NADPH, was as follows: “A” represents a PDR60 of 81 to 100%, “B” represents a PDR60 of 61 to 80%, “C” represents a PDR60 of 31 to 60% and “D” represents a PDR60 of 0 to 30%.
In general terms: Liver microsomes are a subcellular fraction often used to study metabolism.

A further series relates to Mice (male, C57BL/6). As to the kind of experiment: Formalin pain assay in mice. The series is classed as in vivo, mouse. The note with it: 2.5% formalin in left hind paw, time spent flinching/licking/biting. The procedure: Mice (male, C57BL/6) were placed singly in a Perspex chamber for approximately 30 min on three successive days to acclimate and thereby reduce stress-induced behaviors. On the fourth day, the experimental animals received a 25 μl injection of 2.5% formalin beneath the left plantar skin using a 29-gauge syringe. […] The total time spent on flinches/licking/biting of the hind paw was recorded by visual observation for every 5 min period/interval for total observation duration of 60 min in two phases, the early phase (0-5 min) and the late phase (15-40 min). Observers were blinded to the treatment group allocation.
For test compounds, % protection from 0-60 min was used to assess activity. Scoring for the test compounds was as follows: “A” represents a % protection of 81 to 100%, “B” represents a % protection of 61 to 80%, “C” represents a % protection of 31 to 60% and “D” represents a % protection of 0 to 30%.

Series [3] relates to rat dorsal root ganglion (DRG) cells. Nature of the series: Rat dorsal root ganglion (DRG) excitability response to electrical field stimulation. The series is classed as cell-based. The note with it: adult rat DRG cells, Ca5 Ca2+ indicator, six concentrations, highest typically 30 μM, read-out: Scoring: EC50, modulation of rat DRG excitability. The procedure: Rat Dorsal Root Ganglion Excitability Response of Representative Compounds Dorsal root ganglions (DRGs) were dissected from adult rats. The tissue was processed, and cells were seeded into cell culture plates (48 center wells of one quadrant in 384-well plates) and cultured for 2 days prior to Electrical field stimulation (EFS). To visualize the neuronal excitability response, intracellular Ca^+2 transients were monitored using the Ca^+2 indicator, Ca5. Ca5 was added to the cultures 1 h prior to EFS. Representative compounds of the invention (i.e., test compounds) and reference compound, tetracaine, were added in concentration-response format encompassing six concentrations, performed in duplicate. The highest concentration tested was typically 30 μM with 1 in 3 dilutions generating the subsequent concentrations.
Effects on DRG excitability by the test compounds and standard were evaluated using four EFS protocols as disclosed in Table 2.
Experimental results were performed using two seperate sets of plates using separate test compound and standard dilutions, to provide n=2. In the first set of experiments, compounds were added 24 h prior to EFS to increase the possibility to also detect more long-term compound effects. In the second set of experiments the compounds were added directly prior to EFS. Excitability response to EFS was analyzed as the average fluorescence ratio (peak/baseline) change per well. All plates were evaluated using high content imaging equipment post-EFS, imaging the Ca5 background staining to detect any possibile compound-related toxic effects.
Average response by the reference compound, tetracaine, was 4.05 μM.

SMILES strings stand for the structures.

Consider `C[C@@H]1CC[C@@]2(OC1)O[C@H]1C[C@H]3[C@H](CO)[C@@H]([C@@]4(C)Cc5cn[nH]c5C[C@@H]4CO)CC[C@]3(C)[C@H]1[C@@H]2C` [Ia-1, ((5R,6S)-5-((2R,3S,3aR,3bS,5′R,6S,7R,7aS,8aS)-7-(hydroxymethyl)-3,3b,5′-trimethyltetradecahydrospiro[indeno[2,1-b]furan-2,2′-pyran]-6-yl)-5-methyl-4,5,6,7-tetrahydro-1H-indazol-6-yl)methanol], for which, in series [1], the IC50 is 1.5 to 15 µM.

As usually defined, the EC50 is the concentration that produces a half-maximal response. As to `C[C@@H]1CC[C@@]2(OC1)O[C@H]1C[C@H]3[C@H](CN)[C@@H]([C@@]4(C)Cc5cn[nH]c5C[C@@H]4CO)CC[C@]3(C)[C@H]1[C@@H]2C` [Ia-2, ((5R,6S)-5-((2R,3S,3aR,3bS,5′R,6S,7R,7aS,8aS)-7-(aminomethyl)-3,3b,5′-trimethyltetradecahydrospiro[indeno[2,1-b]furan-2,2′-pyran]-6-yl)-5-methyl-4,5,6,7-tetrahydro-1H-indazol-6-yl)methanol], the IC50 in series [1] fell in the range of 1.5 to 15 µM. Further, the “Scoring: % of drug remaining after 60 minutes (PDR60)” value in series [2] was “A (“A” represents a PDR60 of 81 to 100%)”. In addition, in the series with Mice (male, C57BL/6), the “Scoring: % protection from 0-60 min” value is “D (“D” represents a % protection of 0 to 30%)”. For the same compound, the EC50 in series [3] lay in the range of 6 to 15 µM.

With `CC[C@H](CC(O)[C@@H](C)[C@H]1CC[C@H]2[C@H](CO)[C@@H]([C@@]3(C)Cc4cn[nH]c4C[C@@H]3CO)CC[C@]12C)C(C)C` (stereo partly drawn) [Ia-9, (2S,5R)-5-ethyl-2-((1R,3aS,4S,5S,7aS)-4-(hydroxymethyl)-5-((5R,6S)-6-(hydroxymethyl)-5-methyl-4,5,6,7-tetrahydro-1H-indazol-5-yl)-7a-methyloctahydro-1H-inden-1-yl)-6-methylheptan-3-ol], the IC50 in series [1] lay within 1.5 to 15 µM.

On to `C[C@]1([C@H]2CC[C@]3(C)C(O)CC[C@H]3[C@@H]2CO)Cc2cn[nH]c2C[C@@H]1CO` (some centres unmarked) [Ia-10a and Ia-10b], for which the “Scoring: % of drug remaining after 60 minutes (PDR60)” value in series [2] is listed as “C (“C” represents a PDR60 of 31 to 60%)”. In the series on Mice (male, C57BL/6), the “Scoring: % protection from 0-60 min” value is recorded as “C (“C” represents a % protection of 31 to 60%)”.
